In ChEMBL document CHEMBL5614394, “Novel pleuromutilin derivatives conjugated with phenyl-sulfide and boron-containing moieties as potent antibacterial agents against antibiotic-resistant bacteria” (Eur J Med Chem, 2024):
≈ marks a conversion by molar mass, not a printed value.

Legend:
Staphylococcus aureus = assay: Antibacterial activity against Staphylococcus aureus ATCC 29213 assessed as inhibition of visible growth of bacteria incubated for 24 hrs by CLSI protocol based broth-dilution method; assay type: functional
[1] = tested on: Staphylococcus epidermidis; assay: Antibacterial activity against Staphylococcus epidermidis ATCC 12228 assessed as inhibition of visible growth of bacteria incubated for 24 hrs by CLSI protocol based broth-dilution method; assay type: functional

| MIC (Staphylococcus aureus) [µg/mL] | MIC [1] [µg/mL] | Structure (SMILES) |
| --- | --- | --- |
| 0.031 (≈ 0.0463 µM) | 0.031 (≈ 0.0463 µM) | C=C[C@]1(C)C[C@@H](OC(=O)CSc2cccc(NC(=O)c3cc(F)c(B(O)O)c(F)c3)c2)[C@]2(C)[C@H](C)CC[C@]3(CCC(=O)[C@H]32)[C@@H](C)[C@@H]1O |
| 0.063 (≈ 0.088 µM) | 0.063 (≈ 0.088 µM) | C=C[C@]1(C)C[C@@H](OC(=O)CSc2cccc(NC(=O)c3ccc(B4OC(C)(C)C(C)(C)O4)cc3)c2)[C@]2(C)[C@H](C)CC[C@]3(CCC(=O)[C@H]32)[C@@H](C)[C@@H]1O |
| 0.063 (≈ 0.0976 µM) | 1 (≈ 1.55 µM) | C=C[C@]1(C)C[C@@H](OC(=O)CSc2ccccc2NC(=O)c2ccc3c(c2)B(O)OC3)[C@]2(C)[C@H](C)CC[C@]3(CCC(=O)[C@H]32)[C@@H](C)[C@@H]1O |
| 0.031 (≈ 0.0489 µM) | 0.031 (≈ 0.0489 µM) | C=C[C@]1(C)C[C@@H](OC(=O)CSc2ccc(NC(=O)c3cccc(B(O)O)c3)cc2)[C@]2(C)[C@H](C)CC[C@]3(CCC(=O)[C@H]32)[C@@H](C)[C@@H]1O |
| 0.063 (≈ 0.0943 µM) | 1 (≈ 1.5 µM) | C=C[C@]1(C)C[C@@H](OC(=O)CSc2cccc(NC(=O)c3ccc(B(O)O)cc3Cl)c2)[C@]2(C)[C@H](C)CC[C@]3(CCC(=O)[C@H]32)[C@@H](C)[C@@H]1O |
| 0.063 (≈ 0.0967 µM) | 0.063 (≈ 0.0967 µM) | C=C[C@]1(C)C[C@@H](OC(=O)CSc2cccc(NC(=O)c3cc(B(O)O)ccc3F)c2)[C@]2(C)[C@H](C)CC[C@]3(CCC(=O)[C@H]32)[C@@H](C)[C@@H]1O |
| 0.031 (≈ 0.0467 µM) | 0.031 (≈ 0.0467 µM) | C=C[C@]1(C)C[C@@H](OC(=O)CSc2cccc(NC(=O)c3ccc(B(O)O)c(OC)c3)c2)[C@]2(C)[C@H](C)CC[C@]3(CCC(=O)[C@H]32)[C@@H](C)[C@@H]1O |
| 0.5 (≈ 0.802 µM) | 0.063 (≈ 0.101 µM) | C=C[C@]1(C)C[C@@H](OC(=O)CSc2cccc(NC(=O)c3ccc(B(O)O)o3)c2)[C@]2(C)[C@H](C)CC[C@]3(CCC(=O)[C@H]32)[C@@H](C)[C@@H]1O |
| 0.031 (≈ 0.0479 µM) | 0.031 (≈ 0.0479 µM) | C=C[C@]1(C)C[C@@H](OC(=O)CSc2cccc(NC(=O)c3ccc(C)c(B(O)O)c3)c2)[C@]2(C)[C@H](C)CC[C@]3(CCC(=O)[C@H]32)[C@@H](C)[C@@H]1O |
| 0.031 (≈ 0.0476 µM) | 0.031 (≈ 0.0476 µM) | C=C[C@]1(C)C[C@@H](OC(=O)CSc2cccc(NC(=O)c3cc(F)cc(B(O)O)c3)c2)[C@]2(C)[C@H](C)CC[C@]3(CCC(=O)[C@H]32)[C@@H](C)[C@@H]1O |
| 0.063 (≈ 0.0944 µM) | 4 (≈ 5.99 µM) | C=C[C@]1(C)C[C@@H](OC(=O)CS[C@@H]2CC[C@@H](NC(=O)c3ccc4c(c3)B(O)OC4)C[C@H]2O)[C@]2(C)[C@H](C)CC[C@]3(CCC(=O)[C@H]32)[C@@H](C)[C@@H]1O |
| 0.063 (≈ 0.0971 µM) | 0.063 (≈ 0.0971 µM) | C=C[C@]1(C)C[C@@H](OC(=O)CSc2cccc(NC(=O)c3cc(N)cc(B(O)O)c3)c2)[C@]2(C)[C@H](C)CC[C@]3(CCC(=O)[C@H]32)[C@@H](C)[C@@H]1O |
| 0.063 (≈ 0.088 µM) | 0.063 (≈ 0.088 µM) | C=C[C@]1(C)C[C@@H](OC(=O)CSc2cccc(NC(=O)c3cccc(B4OC(C)(C)C(C)(C)O4)c3)c2)[C@]2(C)[C@H](C)CC[C@]3(CCC(=O)[C@H]32)[C@@H](C)[C@@H]1O |
| 0.016 (≈ 0.0248 µM) | 0.25 (≈ 0.387 µM) | C=C[C@]1(C)C[C@@H](OC(=O)CSc2ccc(NC(=O)c3ccc4c(c3)B(O)OC4)cc2)[C@]2(C)[C@H](C)CC[C@]3(CCC(=O)[C@H]32)[C@@H](C)[C@@H]1O |
| 0.063 (≈ 0.0973 µM) | 0.063 (≈ 0.0973 µM) | C=C[C@]1(C)C[C@@H](OC(=O)CSc2cccc(NC(=O)Cc3cccc(B(O)O)c3)c2)[C@]2(C)[C@H](C)CC[C@]3(CCC(=O)[C@H]32)[C@@H](C)[C@@H]1O |
| 0.063 (≈ 0.0973 µM) | 0.063 (≈ 0.0973 µM) | C=C[C@]1(C)C[C@@H](OC(=O)CSc2cccc(NC(=O)Cc3ccc(B(O)O)cc3)c2)[C@]2(C)[C@H](C)CC[C@]3(CCC(=O)[C@H]32)[C@@H](C)[C@@H]1O |
| 0.031 (≈ 0.0467 µM) | 0.031 (≈ 0.0467 µM) | C=C[C@]1(C)C[C@@H](OC(=O)CSc2cccc(NC(=O)c3cc(B(O)O)ccc3OC)c2)[C@]2(C)[C@H](C)CC[C@]3(CCC(=O)[C@H]32)[C@@H](C)[C@@H]1O |
| 0.063 (≈ 0.0994 µM) | 0.5 (≈ 0.789 µM) | C=C[C@]1(C)C[C@@H](OC(=O)CSc2ccc(NC(=O)c3ccc(B(O)O)cc3)cc2)[C@]2(C)[C@H](C)CC[C@]3(CCC(=O)[C@H]32)[C@@H](C)[C@@H]1O |
| 0.063 (≈ 0.0967 µM) | 16 (≈ 24.6 µM) | C=C[C@]1(C)C[C@@H](OC(=O)CSc2cccc(NC(=O)c3ccc(B(O)O)c(F)c3)c2)[C@]2(C)[C@H](C)CC[C@]3(CCC(=O)[C@H]32)[C@@H](C)[C@@H]1O |
| 0.063 (≈ 0.0967 µM) | 1 (≈ 1.53 µM) | C=C[C@]1(C)C[C@@H](OC(=O)CSc2ccc(NC(=O)c3cc(B(O)O)ccc3F)cc2)[C@]2(C)[C@H](C)CC[C@]3(CCC(=O)[C@H]32)[C@@H](C)[C@@H]1O |
